Drawing on patent publication US12252524B2, “GIP/GLP1 co-agonist compounds” (Eli Lilly and Company, priority 2018, dated 2025), this text covers Ki and EC50 for four compounds.

The structures appear in SMILES notation. pEC50: −log10 of the molar value. Numbered stars: 1 amine (or outer) side, 2 acyl side, 3 side chain; on linkers, the order of the positions; unused ones are H or OH. Square brackets hold non-standard residues; d marks the D form. Side chains are listed from the residue outwards. Peptide text beside a SMILES is read from it. * marks the point of attachment. C18 diacid = O=C(O)CCCCCCCCCCCCCCCCC(=O)*; γGlu = O=C(O)[C@H](CCC(=O)[*:2])N[*:1]; αMeL = CC(C)C[C@](C)(N)C(=O)O; Orn = NCCC[C@H](N)C(=O)O; AEEA = NCCOCCOCC(=O)O; Aib = CC(C)(N)C(=O)O

In one assay the target is T1, human Gcg receptor (Homo sapiens, UniProt P47871).
T1 construct: expressed in transfected cells; crude membranes
As to the kind of experiment: [125I]-Glucagon binding (SPA), human Gcg receptor. The note with it: read-out: hGLcgR Ki, nM (SEM, n). A digest of the protocol:
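Scintillation counts are taken after membranes and WGA beads incubate and settle for 12 hours at room temperature. Buffer is 25 mM HEPES, pH 7.4, with CaCl2, MgCl2, bacitracin and Tween-20. Ki values, from four-parameter IC50 fits, are geometric means over independent days.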

The target of the next assay is T2, human GIP receptor (Homo sapiens, UniProt P48546).
T2 construct: expressed in transfected cells; crude membranes
T2 sequence (P48546 22-466): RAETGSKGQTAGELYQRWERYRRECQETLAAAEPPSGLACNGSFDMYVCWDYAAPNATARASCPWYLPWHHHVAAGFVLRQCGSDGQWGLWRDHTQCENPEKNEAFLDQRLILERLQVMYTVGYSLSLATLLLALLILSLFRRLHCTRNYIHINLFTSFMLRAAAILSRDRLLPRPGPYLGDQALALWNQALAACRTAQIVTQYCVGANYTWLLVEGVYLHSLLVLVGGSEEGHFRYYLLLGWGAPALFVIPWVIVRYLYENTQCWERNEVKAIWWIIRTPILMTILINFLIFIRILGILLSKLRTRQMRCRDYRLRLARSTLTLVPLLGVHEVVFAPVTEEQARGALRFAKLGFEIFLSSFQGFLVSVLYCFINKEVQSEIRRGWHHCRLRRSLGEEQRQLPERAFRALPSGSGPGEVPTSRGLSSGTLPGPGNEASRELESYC
As to the kind of experiment: [125I]-GIP binding (SPA), human GIP receptor. The note with it: read-out: hGIPR Ki, nM (SEM, n).

The target of assay [1] is human GLP-1 receptor (GLP-1R) (Homo sapiens, UniProt P43220). As to the kind of experiment: cAMP pharmacological functional assay in presence of casein, hGLP-1R. It counts as cell-based. The note with it: HEK293 cells expressing hGLP-1R, 0.1% Casein, geometric mean; read-out: hGLP1R cAMP Rel EC50 nM (SEM, n).
Assay [2] deals with T3, gastric inhibitory peptide receptor (GIPR) (Homo sapiens, UniProt P48546).
T3 sequence (P48546 22-466): T2 sequence (P48546 22-466)
As to the kind of experiment: cAMP pharmacological functional assay in presence of casein, hGIPR. The note with it: HEK293 cells expressing hGIPR, 0.1% Casein, geometric mean; read-out: hGIPR cAMP Rel EC50 nM (SEM, n). The format is cell-based.

In assay [3] the target is T4, human GLP-1R (Homo sapiens, UniProt P43220). As to the kind of experiment: [125I]-GLP-1 binding (SPA), human GLP-1 receptor. On the set-up: expressed in transfected cells; crude membranes. Particulars: read-out: hGLP1R Ki, (nM) (SEM, n). In short, it runs like this:
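Ki values are geometric means with SEM over independent replicates on different days, derived from IC50s fitted by four-parameter nonlinear regression. The assay used crude cell membranes in HEPES buffer, pH 7.4, containing CaCl2, MgCl2, bacitracin and TWEEN-20.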

In assay [4] the target is T4, human GLP-1R. Put plainly: GLP-1R HEK293 cell membrane [35S]GTPγS binding assay. On the set-up: expressed in transfected cells; host or cells: HEK293 cells expressing human GLP-1R; membranes. It counts as biochemical. The note with it: HEK293 cell membranes expressing human GLP-1R, [35S]GTPγS binding; read-out: hGLP1R GTPgS Rel EC50 nM (SEM, n). The protocol:
The GLP-1 receptor is a G-protein coupled receptor that increases GTP-bound Gas upon ligand induced receptor activation. The potency of peptides to stimulate-GLP-1R induced activation of Gac is determined using preparations of purified membranes from HEK293 cells expressing the human GLP-1R. […] The test peptides are solubilized in DMSO and diluted in reaction buffer containing 5 μg of membrane in 20 mM HEPES pH 7.4, 50 mM NaCl, 5 mM MgCl2, 40 μg/ml saponin, 0.1% BSA, and […] ^35S-labeled GTPTS for 30 minutes at room temperature. Reactions are terminated by addition of 0.2% Nonidet β-40 detergent containing rabbit anti-Gas polyclonal antibody and 0.5 mg of anti-rabbit polyvinyltoluene beads. Mixtures are developed for 30 minutes, centrifuged at 80×g for 10 minutes, and counted for 1 minute/well using a MicroBeta TriLux instrument. Peptide concentration-response curves are fit to a four-parameter logistic model to calculate potency as an EC50.
(In general: Binding of GTPγS marks nucleotide exchange on a G protein.)

The target in assay [5] is T4, human GLP-1R. Put plainly: GLP-1R CHO cell β-arrestin recruitment assay. The format is cell-based. On the set-up: host or cells: CHO-K1 PathHunter cells, assay-ready frozen. The note with it: CHO-K1 cells. An excerpt:
Activated G-protein coupled receptors can interact with the β-arrestin family of signalling proteins. […] CHO-K1 cells expressing Pro-Link-tagged Human GLP-1R and enzyme-acceptor-tagged β-arrestin-2 may be obtained from DiscoveRx and prepared as assay-ready frozen cells. Test peptides are solubilized in DMSO and serial dilutions are perfomed using the Echo acoustic dispenser (LabCyte). Assay media is the PathHunter Cell Assay Buffer (DiscoveRx) containing 0.1% w/v hydrolyzed Casein (Sigma). […] Plates are incubated for 90 minutes in a 37′C/5% C02 incubator and 10 ul of PathHunter detection reagent is added (DiscoveRx) and plates are incubated at room temperature for 60 minutes. Luminescence signal is measured. Peptide concentration-response curves fit to a four-parameter logistic model to calculate potency as an EC50.

T1 sequence (P47871 26-477): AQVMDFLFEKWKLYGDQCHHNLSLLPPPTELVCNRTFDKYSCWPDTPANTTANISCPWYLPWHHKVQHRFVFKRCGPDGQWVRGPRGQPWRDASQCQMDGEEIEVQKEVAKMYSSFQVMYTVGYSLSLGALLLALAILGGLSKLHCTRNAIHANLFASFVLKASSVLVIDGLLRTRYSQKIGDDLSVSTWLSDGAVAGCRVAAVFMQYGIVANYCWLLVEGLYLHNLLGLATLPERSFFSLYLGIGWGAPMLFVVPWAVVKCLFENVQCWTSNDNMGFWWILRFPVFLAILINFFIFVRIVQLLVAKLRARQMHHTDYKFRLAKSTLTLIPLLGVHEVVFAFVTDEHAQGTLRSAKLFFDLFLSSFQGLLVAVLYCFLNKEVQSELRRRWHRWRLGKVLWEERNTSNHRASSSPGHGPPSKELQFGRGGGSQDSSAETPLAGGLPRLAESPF
Sequence of human GLP-1 receptor (GLP-1R) (P43220 24-463): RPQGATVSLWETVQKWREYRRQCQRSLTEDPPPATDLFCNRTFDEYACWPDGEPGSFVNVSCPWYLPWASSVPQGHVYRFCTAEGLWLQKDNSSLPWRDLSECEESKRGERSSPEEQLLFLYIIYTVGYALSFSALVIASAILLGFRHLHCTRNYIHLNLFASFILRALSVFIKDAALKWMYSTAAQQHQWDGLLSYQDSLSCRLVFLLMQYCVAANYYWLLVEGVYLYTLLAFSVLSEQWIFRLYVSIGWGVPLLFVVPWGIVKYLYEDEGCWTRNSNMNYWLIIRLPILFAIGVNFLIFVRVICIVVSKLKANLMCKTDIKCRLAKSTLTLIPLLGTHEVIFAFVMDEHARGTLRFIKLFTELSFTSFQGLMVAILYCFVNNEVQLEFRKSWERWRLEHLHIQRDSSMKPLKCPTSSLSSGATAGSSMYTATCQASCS
T4 sequence (P43220 24-463): as above

On to `CC[C@H](C)[C@H](NC(=O)[C@H](CC(C)C)NC(=O)[C@H](Cc1ccc(O)cc1)NC(=O)[C@H](CCC(=O)O)NC(=O)[C@@H](NC(=O)[C@H](Cc1ccccc1)NC(=O)[C@H](C)NC(=O)C(C)(C)NC(=O)[C@H](CCC(N)=O)NC(=O)[C@H](C)NC(=O)[C@H](CCCCNC(=O)COCCOCCNC(=O)COCCOCCNC(=O)CC[C@H](NC(=O)CCCCCCCCCCCCCCCCC(=O)O)C(=O)O)NC(=O)[C@H](CCCCN)NC(=O)[C@H](CC(=O)O)NC(=O)[C@H](CC(C)C)NC(=O)[C@H](CC(C)C)NC(=O)[C@@H](NC(=O)[C@H](CO)NC(=O)[C@H](Cc1ccc(O)cc1)NC(=O)[C@H](CC(=O)O)NC(=O)[C@H](CO)NC(=O)[C@@H](NC(=O)[C@H](Cc1ccccc1)NC(=O)[C@@H](NC(=O)CNC(=O)[C@H](CCC(=O)O)NC(=O)C(C)(C)NC(=O)[C@@H](N)Cc1ccc(O)cc1)[C@@H](C)O)[C@@H](C)O)[C@@H](C)CC)C(C)C)C(=O)N[C@@H](CCC(=O)O)C(=O)NCC(=O)NCC(=O)N1CCC[C@H]1C(=O)N[C@@H](CO)C(=O)N[C@@H](CO)C(=O)NCC(N)=O` [Example 298] (H-Y[Aib]EGTFTSDYSILLDKK([AEEA-AEEA-γGlu-C18 diacid])AQ[Aib]AFVEYLIEGGPSSG-NH2; N-terminus assumed), for which the Ki on human Gcg receptor was greater than 1370 nM; at human GIP receptor, 0.0578 nM; on human GLP-1R [3], 3.03 nM. The EC50 in assay [1] worked out at 0.0957 nM; in assay [2] it was 0.043 nM; on human GLP-1R [4], 1.03 nM.
For the compound `CC[C@H](C)[C@H](NC(=O)[C@H](CC(C)C)NC(=O)[C@H](Cc1ccc(O)cc1)NC(=O)[C@H](CCC(=O)O)NC(=O)[C@@H](NC(=O)[C@H](Cc1ccccc1)NC(=O)[C@H](CCC(=O)O)NC(=O)C(C)(C)NC(=O)[C@H](CCC(N)=O)NC(=O)[C@H](C)NC(=O)[C@H](CCCCNC(=O)COCCOCCNC(=O)COCCOCCNC(=O)CC[C@H](NC(=O)CCCCCCCCCCCCCCCCC(=O)O)C(=O)O)NC(=O)[C@H](CCCCN)NC(=O)[C@H](CC(=O)O)NC(=O)[C@H](CC(C)C)NC(=O)[C@](C)(CC(C)C)NC(=O)[C@@H](NC(=O)[C@H](CO)NC(=O)[C@H](Cc1ccc(O)cc1)NC(=O)[C@H](CC(=O)O)NC(=O)[C@H](CO)NC(=O)[C@@H](NC(=O)[C@H](Cc1ccccc1)NC(=O)[C@@H](NC(=O)CNC(=O)[C@H](CCC(=O)O)NC(=O)C(C)(C)NC(=O)[C@@H](N)Cc1ccc(O)cc1)[C@@H](C)O)[C@@H](C)O)[C@@H](C)CC)[C@@H](C)CC)C(=O)N[C@@H](CCC(=O)O)C(=O)NCC(=O)NCC(=O)N1CCC[C@H]1C(=O)N[C@@H](CO)C(=O)N[C@@H](CO)C(=O)NCC(N)=O` [Example 304] (H-Y[Aib]EGTFTSDYSI[αMeL]LDKK([AEEA-AEEA-γGlu-C18 diacid])AQ[Aib]EFIEYLIEGGPSSG-NH2), the Ki on human Gcg receptor was greater than 855 nM; on human GIP receptor it was 0.0499 nM; at human GLP-1R [3], 4.44 nM. For the same compound, the EC50 came to 0.191 nM in assay [1], 0.0296 nM in assay [2] and 0.561 nM at human GLP-1R [4].
Regarding `CC[C@H](C)[C@H](NC(=O)[C@H](CC(C)C)NC(=O)[C@H](Cc1ccc(O)cc1)NC(=O)[C@H](CCC(=O)O)NC(=O)[C@@H](NC(=O)[C@H](Cc1ccccc1)NC(=O)[C@H](C)NC(=O)C(C)(C)NC(=O)[C@H](CCC(N)=O)NC(=O)[C@H](C)NC(=O)[C@H](CCCCNC(=O)COCCOCCNC(=O)COCCOCCNC(=O)CC[C@H](NC(=O)CCCCCCCCCCCCCCCCC(=O)O)C(=O)O)NC(=O)[C@H](CCCCN)NC(=O)[C@H](CC(=O)O)NC(=O)[C@H](CC(C)C)NC(=O)[C@](C)(CC(C)C)NC(=O)[C@@H](NC(=O)[C@H](CO)NC(=O)[C@H](Cc1ccc(O)cc1)NC(=O)[C@H](CC(=O)O)NC(=O)[C@H](CO)NC(=O)[C@@H](NC(=O)[C@H](Cc1ccccc1)NC(=O)[C@@H](NC(=O)CNC(=O)[C@H](CCC(=O)O)NC(=O)C(C)(C)NC(=O)[C@@H](N)Cc1ccc(O)cc1)[C@@H](C)O)[C@@H](C)O)[C@@H](C)CC)[C@@H](C)CC)C(=O)N[C@@H](C)C(=O)NCC(=O)NCC(=O)N1CCC[C@H]1C(=O)N[C@@H](CO)C(=O)N[C@@H](CO)C(=O)NCC(N)=O` [Example 305] (H-Y[Aib]EGTFTSDYSI[αMeL]LDKK([AEEA-AEEA-γGlu-C18 diacid])AQ[Aib]AFIEYLIAGGPSSG-NH2), the figures for the Ki at human Gcg receptor, on human GIP receptor and at human GLP-1R [3] were 352 nM, 0.025 nM and 0.83 nM, respectively. Besides, the results for the EC50 (in assay [1]; in assay [2]; at human GLP-1R [4]) were 0.107 nM, 0.0225 nM and 0.389 nM, respectively.
`CC[C@H](C)[C@H](NC(=O)[C@H](CC(C)C)NC(=O)[C@H](Cc1ccc(O)cc1)NC(=O)[C@@H](CCC(=O)O)NC(=O)[C@@H](NC(=O)[C@H](Cc1ccccc1)NC(=O)[C@H](C)NC(=O)C(C)(C)NC(=O)[C@H](CCC(N)=O)NC(=O)[C@H](C)NC(=O)[C@H](CCCCNC(=O)COCCOCCNC(=O)COCCOCCNC(=O)CC[C@H](NC(=O)CCCCCCCCCCCCCCCCC(=O)O)C(=O)O)NC(=O)[C@H](CCCN)NC(=O)[C@H](CC(=O)O)NC(=O)[C@H](CC(C)C)NC(=O)[C@](C)(CC(C)C)NC(=O)[C@@H](NC(=O)[C@H](CO)NC(=O)[C@H](Cc1ccc(O)cc1)NC(=O)[C@H](CC(=O)O)NC(=O)[C@H](CO)NC(=O)[C@@H](NC(=O)[C@H](Cc1ccccc1)NC(=O)[C@@H](NC(=O)CNC(=O)[C@H](CCC(=O)O)NC(=O)C(C)(C)NC(=O)[C@H](N)Cc1ccc(O)cc1)[C@@H](C)O)[C@@H](C)O)[C@@H](C)CC)C(C)C)C(=O)N[C@@H](C)C(=O)NCC(=O)NCC(=O)N1CCC[C@H]1C(=O)N[C@@H](CO)C(=O)N[C@@H](CO)C(=O)NCC(=O)N[C@@H](C)C(=O)N1CCC[C@H]1C(=O)N1CCC[C@H]1C(=O)N1CCC[C@H]1C(=O)N[C@@H](CO)C(N)=O` [Example 364] (H-[dY][Aib]EGTFTSDYSI[αMeL]LD[Orn]K([AEEA-AEEA-γGlu-C18 diacid])AQ[Aib]AFV[dE]YLIAGGPSSGAPPPS-NH2): the results for the Ki on human Gcg receptor, on human GIP receptor and on human GLP-1R [3] were greater than 1150 nM, 0.672 nM and 17.2 nM, respectively. Besides, the EC50 in assay [1] was 1 nM; in assay [2], 0.351 nM; on human GLP-1R [5] (PathHunter β-arrestin-2 recruitment, 0.1% casein, read-out: hGLP1R B-Arrestin2 Rel EC50 uM (SEM, n)), greater than 12 µM. Besides, on human GLP-1R [5] (0.1% w/v hydrolyzed Casein, read-out: hGLP1R B-Arrestin2 Rel EC50), the pEC50 is less than 4.92.

One may read the Ki as the equilibrium dissociation constant of an inhibitor or competing ligand from its target. What is called EC50 is the midpoint of the concentration-response curve. As usually defined, the pEC50 is the negative decadic logarithm of the EC50, by convention in mol/L.
